Test results taken from ChEMBL document CHEMBL3739316, “Novel orally active inhibitors of β-1,3-glucan synthesis derived from enfumafungin” (Bioorg Med Chem Lett, 2015).
Converted amounts (≈) assume the structure as drawn.

Key:
[1] = molecular target: T1, Beta-1,3-glucan synthase (Candida albicans, UniProt O13383); assay: Displacement of UDP-[3H]glucose from beta-1,3-glucan synthase in Candida albicans MY1055 microsomal membranes incubated for 2 hrs
T1 sequence (O13383 whole entry): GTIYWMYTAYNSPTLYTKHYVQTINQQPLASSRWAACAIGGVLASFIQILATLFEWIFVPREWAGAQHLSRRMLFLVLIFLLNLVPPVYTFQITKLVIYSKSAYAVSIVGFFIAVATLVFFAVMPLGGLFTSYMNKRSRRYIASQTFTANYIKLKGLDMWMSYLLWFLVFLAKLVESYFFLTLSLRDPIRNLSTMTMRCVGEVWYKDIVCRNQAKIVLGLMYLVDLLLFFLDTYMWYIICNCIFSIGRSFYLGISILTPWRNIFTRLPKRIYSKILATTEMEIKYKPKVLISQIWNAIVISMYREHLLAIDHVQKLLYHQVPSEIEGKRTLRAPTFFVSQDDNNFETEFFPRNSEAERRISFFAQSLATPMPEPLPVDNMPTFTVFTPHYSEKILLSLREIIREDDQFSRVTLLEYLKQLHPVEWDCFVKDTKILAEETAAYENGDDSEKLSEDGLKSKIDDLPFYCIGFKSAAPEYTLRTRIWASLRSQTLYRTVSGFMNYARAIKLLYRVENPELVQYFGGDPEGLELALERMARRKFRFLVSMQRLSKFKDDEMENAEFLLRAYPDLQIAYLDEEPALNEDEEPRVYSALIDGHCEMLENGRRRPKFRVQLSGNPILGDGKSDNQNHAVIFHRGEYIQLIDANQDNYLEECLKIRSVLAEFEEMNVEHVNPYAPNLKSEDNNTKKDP

[2] = test system: Candida albicans; assay: Antifungal activity against Candida albicans MY1055 after 24 hrs by liquid microdilution assay; type: functional; conditions: MY1055, 24 h
[3] = test system: Aspergillus fumigatus; assay: Antifungal activity against Aspergillus fumigatus MF5668 after 24 hrs by liquid microdilution assay; type: functional; conditions: MF5668, 24 h, read-out: MEC
[4] = test system: Candida albicans; assay: Antifungal activity against Candida albicans MY1055 after 24 hrs by liquid microdilution assay in presence of human serum; type: functional; conditions: MY1055, 24 h
[5] = test system: Mus musculus; assay: Dose normalized AUC in orally dosed mouse; type: ADME, organism-based; conditions: in vivo, po
[6] = Oral bioavailability in mouse; type: ADME, organism-based; conditions: in vivo
[7] = test system: Candida albicans; assay: Antifungal activity against Candida albicans MY1055 in DBA/2 mouse candidiasis model assessed as change in CFU per gram of kidney at 25 mg/kg, po bid after 4 days by Target Organ Kidney Assay relative to sham treated control; type: functional
[8] = test system: Candida albicans; assay: Antifungal activity against Candida albicans MY1055 in DBA/2 mouse candidiasis model assessed as change in CFU per gram of kidney at 12.5 mg/kg, po bid after 4 days by Target Organ Kidney Assay relative to sham treated control; type: functional
[9] = test system: Candida albicans; assay: Antifungal activity against Candida albicans MY1055 in DBA/2 mouse candidiasis model assessed as change in CFU per gram of kidney at 6.25 mg/kg, po bid after 4 days by Target Organ Kidney Assay relative to sham treated control; type: functional
[10] = test system: Mus musculus; assay: Drug level in DBA/2J mouse treated with 13f at 10 mg/kg, po; type: ADME, organism-based; conditions: in vivo
[11] = test system: Rattus norvegicus; assay: Dose normalized AUC in orally dosed rat; type: ADME, organism-based; conditions: in vivo, po
[12] = Oral bioavailability in rat; type: ADME, organism-based; conditions: in vivo
[13] = test system: Candida albicans; assay: Antifungal activity against Candida albicans MY1055 in DBA/2 mouse candidiasis model assessed as change in CFU per gram of kidney at 12.5 mg/kg, ip bid after 7 days by Target Organ Kidney Assay relative to sham treated control; type: functional
[14] = test system: Candida albicans; assay: Antifungal activity against Candida albicans MY1055 in DBA/2 mouse candidiasis model assessed as change in CFU per gram of kidney at 25 mg/kg, po bid after 7 days by Target Organ Kidney Assay relative to sham treated control; type: functional
[15] = test system: Candida albicans; assay: Antifungal activity against Candida albicans MY1055 in DBA/2 mouse candidiasis model assessed as change in CFU per gram of kidney at 12.5 mg/kg, po bid after 7 days by Target Organ Kidney Assay relative to sham treated control; type: functional
[16] = test system: Candida albicans; assay: Antifungal activity against Candida albicans MY1055 in DBA/2 mouse candidiasis model assessed as change in CFU per gram of kidney at 6.25 mg/kg, po bid after 7 days by Target Organ Kidney Assay relative to sham treated control; type: functional
[17] = test system: Candida albicans; assay: Antifungal activity against Candida albicans MY1055 in DBA/2N mouse candidiasis model assessed as mouse survival at 12.5 mg/kg, ip bid after 7 days by Target Organ Kidney Assay relative to sham treated control; type: functional; conditions: 168 h
[18] = test system: Candida albicans; assay: Antifungal activity against Candida albicans MY1055 in DBA/2N mouse candidiasis model assessed as mouse survival at 25 mg/kg, po bid after 7 days by Target Organ Kidney Assay relative to sham treated control; type: functional; conditions: 168 h
[19] = test system: Candida albicans; assay: Antifungal activity against Candida albicans MY1055 in DBA/2N mouse candidiasis model assessed as mouse survival at 12.5 mg/kg, po bid after 7 days by Target Organ Kidney Assay relative to sham treated control; type: functional; conditions: 168 h
[20] = test system: Candida albicans; assay: Antifungal activity against Candida albicans MY1055 in DBA/2N mouse candidiasis model assessed as mouse survival at 6.25 mg/kg, po bid after 4 days by Target Organ Kidney Assay relative to sham treated control; type: functional; conditions: 96 h
[21] = test system: Candida albicans; assay: Antifungal activity against Candida albicans MY1055 in DBA/2N mouse candidiasis model assessed as reduction of fungal burden after 7 days; type: functional; conditions: MY1055, 168 h
[22] = AUC (0 to 24 hrs) in DBA/2J mouse at 10 mg/kg, po; type: ADME, organism-based; set-up: dose 10 mg/kg, time < 24 hr, route oral; conditions: in vivo
[23] = test system: Mus musculus; assay: AUC (0 to 24 hrs) in DBA/2J mouse assessed as metabolite 13c at 10 mg/kg, po; type: ADME, organism-based; set-up: dose 10 mg/kg, time < 24 hr, route oral; conditions: in vivo
[24] = test system: Mus musculus; assay: AUC (0 to 24 hrs) in DBA/2J mouse assessed as total metabolites at 10 mg/kg, po; type: ADME, organism-based; conditions: in vivo

SMILES	IC50 [1] [nM]	MIC [2] [µg/mL]	minimal effective concentration [3] [µg/mL]	MIC [4] [µg/mL]	AUC/dose [5] [µM·kg·h/mg]	bioavailability [6] [%]	Activity [7] [deltalog10CFU]	Activity [8] [deltalog10CFU]	Activity [9] [deltalog10CFU]	Activity [13] [deltalog10CFU]	Activity [14] [deltalog10CFU]	Activity [15] [deltalog10CFU]	Activity [16] [deltalog10CFU]	survival at 12.5 mg/kg [17] [%]	survival at 25 mg/kg [18] [%]	survival at 12.5 mg/kg [19] [%]	survival at 6.25 mg/kg [20] [%]	ED99 [21] [mg/kg]	AUC(0-t) at 24 h [22] [µM·h]	AUC [23] [µM·h]	further results
CC(=O)O[C@@H]1C[C@@]23COCC(C)([C@H]1OC[C@](C)(N)C(C)C)[C@@H]2CC[C@H]1C3=CC[C@@]2(C)[C@H](C(=O)O)[C@@](C)([C@H](C)C(C)C)CC[C@]12C	9.52	0.5 (≈ 0.794 µM)	0.06	> 32	1.38	39	-2.2	-0.6	-0.6	–	–	–	–	–	–	–	–	–	–	–	–
CC(C)[C@@H](C)[C@@]1(C)CC[C@]2(C)[C@H]3CC[C@H]4C5(C)COC[C@@]4(C[C@@H](n4nnc(N)n4)[C@@H]5OC[C@](C)(N)C(C)C)C3=CC[C@@]2(C)[C@@H]1C(=O)O	3.05	< 0.03	< 0.03	2	0.14	14	-2.2	-0.3	-0.1	–	–	–	–	–	–	–	–	–	–	–	Drug metabolism [10]: metabolite_detected
CC(=O)O[C@@H]1C[C@@]23COCC(C)([C@H]1O[C@@H]1O[C@H](CO)[C@@H](O)[C@H](O)[C@H]1O)[C@@H]2CC[C@H]1C3=CC[C@@]2(C)[C@H](C(=O)O)[C@@](C)([C@H](C)C(C)C)CC[C@]12C	86.6	0.25 (≈ 0.361 µM)	< 0.03	8	–	–	–	–	–	–	–	–	–	–	–	–	–	–	–	–	AUC/dose [11]: 0.01 µM·kg·h/mg; bioavailability [12]: 1%
CCCCN[C@@](C)(CO[C@H]1[C@H](n2nnc(N)n2)C[C@@]23COCC1(C)[C@@H]2CC[C@H]1C3=CC[C@@]2(C)[C@H](C(=O)O)[C@@](C)([C@H](C)C(C)C)CC[C@]12C)C(C)C	14.1	16 (≈ 22.5 µM)	0.125	32	0.74	30	-2.6	-1.2	-0.1	–	–	–	–	–	–	–	–	–	–	–	–
CCCN[C@@](C)(CO[C@H]1[C@H](n2nnc(N)n2)C[C@@]23COCC1(C)[C@@H]2CC[C@H]1C3=CC[C@@]2(C)[C@H](C(=O)O)[C@@](C)([C@H](C)C(C)C)CC[C@]12C)C(C)C	11.5	0.06 (≈ 0.0861 µM)	< 0.03	16	0.35	25	-3	-2.4	-1.1	-2.98	-2.9	-1.53	-2.04	100	100	100	40	10	3.13	0.36	Drug uptake [24]: 10.3%
CCN[C@@](C)(CO[C@H]1[C@H](n2nnc(N)n2)C[C@@]23COCC1(C)[C@@H]2CC[C@H]1C3=CC[C@@]2(C)[C@H](C(=O)O)[C@@](C)([C@H](C)C(C)C)CC[C@]12C)C(C)C	7.32	0.06 (≈ 0.0878 µM)	< 0.03	8	0.44	11	-2.8	-2.6	-0.7	-3.26	-2.8	-2.54	0.72	100	100	60	20	13	4.22	0.29	Drug uptake [24]: 6.4%
CN[C@@](C)(CO[C@H]1[C@H](n2nnc(N)n2)C[C@@]23COCC1(C)[C@@H]2CC[C@H]1C3=CC[C@@]2(C)[C@H](C(=O)O)[C@@](C)([C@H](C)C(C)C)CC[C@]12C)C(C)C	2.99	< 0.03	< 0.03	4	0.12	9	-2.5	-1.9	-1.5	-3.89	-2.54	0.89	-0.61	100	100	20	20	19	1.06	0.005	Drug uptake [24]: 0.5%; Drug metabolism [10]: metabolite_detected
